Reference: patent US11241436B2, “Autophagy inducers for treatment of CNS conditions” (Northwestern University, priority 2017, dated 2022)
Like-named read-outs stand apart in the source and are kept apart here.

What was measured:
[1] = tested on: Beclin 2-GASP1 interaction; assay: Coimmunoprecipitation of endogenous GASP1 with Flag-human Beclin 2 in HEK293 cells; assay type: cell-based; settings: 3 h
Text: Based on this model, the effect of these inducers on the Beclin 2-GASP1 interaction in vitro and in mouse brain were subsequently examined.

[2] = tested on: 5XFAD mice; assay: Contextual fear conditioning test of 5XFAD mice; assay type: in vivo, mouse; settings: Rg2 for 4 months
Protocol: Fear conditioning training exposed mice to 2-s electrical foot shocks separated by 1-min interval through a grid floor at the bottom of the chamber. On the following day, the mice were returned to the same chamber and their movements were recorded with a video camera to test for contextual conditioning. Freezing (very low levels of movement) in the training environment indicate context-associated fear. WT mice without APP transgene were used as negative control in the above studies. N=8. *, P<0.05; **, P<0.01, t test.

[3] = tested on: 5XFAD mice; assay: Open-field test of 5XFAD mice; assay type: in vivo, mouse; settings: Rg2-treated vs vehicle-treated 5XFAD mice
[4] = mouse
[5] = tested on: HeLa cell lines expressing HTT
[6] = tested on: mouse models of AD; settings: cited from earlier work

## N=c1c2c(-c3ccccc3)c(-c3ccccc3)n(Cc3ccccc3)c2ncn1[C@H]1CC[C@H](O)CC1 [ML246]
[1]
  coimmunoprecipitation of endogenous GASP1 by Beclin 2: potently blocked

## CC(C)=CCC[C@](C)(O)[C@H]1CC[C@]2(C)[C@@H]1[C@H](O)C[C@@H]1[C@@]3(C)CC[C@H](O)C(C)(C)[C@@H]3[C@@H](O[C@@H]3O[C@H](CO)[C@@H](O)[C@H](O)[C@H]3O[C@@H]3O[C@@H](C)[C@H](O)[C@@H](O)[C@H]3O)C[C@]12C [Rg2, ginsenoside Rg2]
[2]
  freezing responses (contextual fear memory): rescued the freezing responses
[3]
  locomotor activity (distance travelled): no rescue
[4]; 10 μg/ml
  percentage bound by plasma protein: approximately 42%
[4]; 50 μg/ml
  percentage bound by plasma protein: ~24%
[4]; 100 μg/ml
  percentage bound by plasma protein: ~15%
[5]
  cell viability: grew as well as the control cells
[6]
  amyloid burden and memory deficit: reduces amyloid burden and memory deficit
